For data set [1] the following is noted: cited from earlier work.
The test system of the next data set is histamine-induced death. Nature of the data set: Protective effect on histamine-induced death. The class given is in vivo, guinea pig (Hartley-strain male). The note with it: oral 1 mg/kg, 2 h before 1.25 mg/kg i.v. histamine hydrochloride, guinea pig; for responders at 1 mg/kg: Cavia porcellus, read-out: Percent inhibition of histamine-induced death at a dose of 1 mg/kg, P.D. (%). The procedure: Hartley-strain male guinea pigs weighing 200 to 250 g were employed. After the test animals were starved for 5 hours, the test substance was orally administered at a dose of 1 mg/kg. 2 hours later after administration of the test substance, 1.25 mg/kg of histamine hydrochloride was intravenously administered to induce histamine shock. The potency of the test substance was judged by the percent inhibition of death induced by histamine.

The subject of data set [2] is thiopental-induced anesthesia. The class given is in vivo, mouse (ddY-strain male). The note with it: 60 mg/10 ml/kg, control 1.00. The procedure: ddY-strain male mice of 5 weeks of age were employed. Thiopental sodium was dissolved in physiological saline, and the test substance was prepared with a suspending agent of 0.5% Tween 80 (trade name, produced by Atlas Powder Co.; polyoxyethylene (20) sorbitan mono-oleate) and 1% gum tragacanth in the ratio of 1:2.5. The test animals were starved for 4 hours, 60 mg/10 ml/kg of the test substance was intraperitoneally administered (or orally administered), and then 20 minutes later (1 hour later in the case of oral administration), 30 mg/[…] of thiopental sodium was intravenously administered. The time immediately from intravenous administration to the righting reflex was measured, and this was defined as the anesthetic time. The formula for determining the anesthesia elongation is shown below. [formula]

A short description of data set [3]: toxicity test in mice by oral administration. The conditions noted are these: in vivo, male mouse. From the text: Also, the compounds of the present invention are extremely safe, and can be used continuously for a long term as pharmaceuticals, and were confirmed to have good tolerability in the toxicity test in mice by oral administration.
Where [4] appears, read: i.p., 20 minutes before i.v. thiopental sodium.
Where [5] appears, read: p.o., 1 hour before i.v. thiopental sodium.

Like-named read-outs stand apart in the source and are kept apart here.

Take `COc1ccc(CCN2CCC(Nc3nc4ccccc4n3Cc3ccc(F)cc3)CC2)cc1` [Astemizole, reference compound]: the sedative side-effect result in data set [1] (reported for control drugs) is given as “little sedative side-effect”. Further, the responders at 1 mg/kg in the data set with histamine-induced death amounted to 100%.

In the case of `CN1CCCC(n2nc(Cc3ccc(Cl)cc3)c3ccccc3c2=O)CC1` (centres unmarked) [Azelastine hydrochloric acid, reference compound], the responders at 1 mg/kg in the data set with histamine-induced death worked out at 100%.

On to `Clc1ccc(C(OC2CCN(CCSc3nc4ccccc4o3)CC2)c2ccccn2)cc1` (centres unmarked) [Compound A, 2-[2-[4-[(4-Chlorophenyl)-2-pyridylmethoxy]-1-piperidyl]-ethylthio]benzoxazole], for which the responders at 1 mg/kg with histamine-induced death is 100%. In addition, the “The ratio of the elongation on the anesthetic time induced by thiopental” value (“The ratio of the elongation” below) in data set [2] (setting [4]) stood at 0.89.

For the compound `Clc1ccc(C(OC2CCN(CCSc3nc4ccccc4o3)CC2)c2ccccn2)cc1.O=C(O)/C=C/C(=O)O` (centres unmarked) [Compound B, 2-[2-[4-[(4-Chlorophenyl)-2-pyridylmethoxy]-1-piperidyl]-ethylthio]benzoxazole fumarate], the LD50 (in general, the dose at which mortality reaches 50%) in data set [3] came out at 1700 mg/kg. For the same compound, in data set [2] (setting [5]), the “The ratio of the elongation” value turned out to be 1.21.

For `Clc1ccc(C(OC2CCN(CCCSc3nc4ccccc4o3)CC2)c2ccccn2)cc1` (centres unmarked) [Compound C], the responders at 1 mg/kg with histamine-induced death was 100%. Further, the “The ratio of the elongation” value in data set [2] (setting [4]) amounted to 0.91.

In data set [3], `Clc1ccc(C(OC2CCN(CCNc3nc4ccccc4o3)CC2)c2ccccn2)cc1.O=C(O)/C=C/C(=O)O` (centres unmarked) [Compound D, 2-[2-[4-[(4-Chlorophenyl)-2-pyridylmethoxy]-1-piperidyl]-ethylamino]benzoxazole fumaric acid salt] returned a median lethal dose (LD50) of 740 mg/kg. Further, the responders at 1 mg/kg in the data set on histamine-induced death was determined as 100%. The “The ratio of the elongation” value in data set [2] (setting [5]) is recorded as 0.88.

Turning to `Clc1ccc(C(OC2CCN(CCSc3nc4ccccc4s3)CC2)c2ccccn2)cc1` (centres unmarked) [Compound E, 2-[2-[4-[(4-Chlorophenyl)-2-pyridylmethoxy]-1-piperidyl]-ethylthio]benzothiazole], the responders at 1 mg/kg in the data set on histamine-induced death worked out at 60%. For the same compound, in data set [2] (setting [4]), the “The ratio of the elongation” value is 1.02.

For `Clc1ccc(C(OC2CCN(CCCSc3nc4ccccc4s3)CC2)c2ccccn2)cc1` (centres unmarked) [Compound F, 2-[3-[4-[(4-Chlorophenyl)-2-pyridylmethoxy]-1-piperidyl]-propylthio]benzothiazole], the responders at 1 mg/kg with histamine-induced death amounted to 80%. Also, in data set [2] (setting [4]), the “The ratio of the elongation” value was determined as 1.73.

Regarding `CCOc1ccc2nc(SCCCN3CCC(OC(c4ccc(Cl)cc4)c4ccccn4)CC3)sc2c1.O=C(O)/C=C/C(=O)O` (centres unmarked) [Compound G, 2-[3-[4-[(4-chlorophenyl)-2-pyridylmethoxy]-1-piperidyl]propylthio]-6-ethoxybenzothiazole fumarate], the responders at 1 mg/kg in the data set with histamine-induced death was 100%. The “The ratio of the elongation” value in data set [2] (setting [5]) amounted to 0.92.

Consider `Clc1ccc(C(OC2CCN(CCNc3nc4ccccc4s3)CC2)c2ccccn2)cc1` (centres unmarked) [Compound H, 2-[2-[4-[(4-Chlorophenyl)-2-pyridylmethoxy]-1-piperidyl]-ethylamino]benzothiazole], for which the responders at 1 mg/kg in the data set on histamine-induced death is 100%. In addition, in data set [2] (setting [4]), the “The ratio of the elongation” value is reported as 1.05.

For the compound `c1ccc(C(c2ccccc2)N2CCN(CCCSc3nc4ccccc4s3)CC2)cc1` [Compound I, 2-[3-[4-(diphenylmethyl)-1-piperadinyl]propylthio]benzothiazole dimaleate], in the data set with histamine-induced death, the responders at 1 mg/kg amounted to 80%. Moreover, the “The ratio of the elongation” value in data set [2] (setting [4]) came to 1.25.

With `CCOC(=O)CCCN1CCC(OC(c2ccc(Cl)cc2)c2ccccn2)CC1` (centres unmarked) [Compound J, Ethyl 4-[4-[(4-chlorophenyl)-2-pyridylmethoxy]-1-piperidyl]butanoate], the responders at 1 mg/kg in the data set on histamine-induced death was found to be 100%. Moreover, the “The ratio of the elongation” value in data set [2] (setting [4]) turned out to be 1.04.

`CCOC(=O)CCCN1CCC(OC(c2ccc(Cl)cc2)c2ccccn2)CC1.Cc1ccc(S(=O)(=O)O)cc1` (centres unmarked) [Compound K, Ethyl 4-[4-[(4-chlorophenyl)-2-pyridylmethoxy]-1-piperidyl]butanoate p-toluenesulfonate] gave an LD50 in data set [3] of 2200 mg/kg. Also, the “The ratio of the elongation” value in data set [2] (setting [5]) is 1.19.

On to `O=C(O)CCCN1CCC(OC(c2ccc(Cl)cc2)c2ccccn2)CC1` (centres unmarked) [Compound L, 4-[4-[(4-Chlorophenyl)-2-pyridylmethoxy]-1-piperidyl]-butanoic acid], for which the responders at 1 mg/kg in the data set with histamine-induced death was 100%.

Turning to `NC(=O)CCCN1CCC(OC(c2ccc(Cl)cc2)c2ccccn2)CC1.O=C(O)/C=C\C(=O)O` (centres unmarked) [Compound M, 4-[4-[(4-Chlorophenyl)-2-pyridylmethoxy]-1-piperidyl]-butanamide maleate], the responders at 1 mg/kg in the data set with histamine-induced death was 100%. For the same compound, in data set [2] (setting [5]), the “The ratio of the elongation” value amounted to 0.75.

On to `CCOC(=O)CCCN1CCC(OC(c2ccccc2)c2ccccc2)CC1.O=C(O)/C=C/C(=O)O` [Compound N, Ethyl 4-(4-diphenylmethoxy-1-piperidyl)butanoate fumaric acid salt], for which the responders at 1 mg/kg in the data set on histamine-induced death came to 80%. Also, the “The ratio of the elongation” value in data set [2] (setting [5]) turned out to be 0.90.

Regarding `CCOC(=O)C=CCN1CCC(OC(c2ccc(Cl)cc2)c2ccccn2)CC1` (centres unmarked) [Compound O, Ethyl 4-[4-[(4-chlorophenyl)-2-pyridylmethoxy]-1-piperidyl]-2-butenoate], the responders at 1 mg/kg with histamine-induced death is 100%. In addition, the “The ratio of the elongation” value in data set [2] (setting [5]) stood at 1.14.

As to `CC(=O)CCCN1CCC(OC(c2ccc(Cl)cc2)c2ccccn2)CC1.O=C(O)/C=C/C(=O)O` (centres unmarked) [Compound P, 5-[4-[(4-Chlorophenyl)-2-pyridylmethoxy]-1-piperidyl]-2-pentanone fumaric acid salt], in the data set with histamine-induced death, the responders at 1 mg/kg is 100%. In addition, the “The ratio of the elongation” value in data set [2] (setting [5]) worked out at 0.86.

With `O=C(CCCN1CCC(OC(c2ccc(Cl)cc2)c2ccccn2)CC1)c1ccccc1` (centres unmarked) [Compound Q, 4-[(4-Chlorophenyl)-2-pyridylmethoxy]-1-(3-benzoylpropyl)piperidine], the responders at 1 mg/kg in the data set on histamine-induced death amounted to 100%. Moreover, in data set [2] (setting [5]), the “The ratio of the elongation” value worked out at 1.25.

In the case of `c1ccc2c(c1)Sc1ccccc1N2CC1CN2CCC1CC2` (centres unmarked) [Meqiutazine, reference compound], the responders at 1 mg/kg with histamine-induced death amounted to 80%.

`O=c1[nH]c2ccccc2n1CCCN1CCN(C(c2ccccc2)c2ccccc2)CC1` [Oxatomide, reference compound]: the responders at 1 mg/kg in the data set on histamine-induced death is 100%. For the same compound, in data set [2] (setting [5]), the “The ratio of the elongation” value amounted to 4.56.

As for `CC(C)(C)c1ccc(C(O)CCCN2CCC(C(O)(c3ccccc3)c3ccccc3)CC2)cc1` (centres unmarked) [Terfenadine, reference compound], the sedative side-effect result in data set [1] (in vivo) is given as “little sedative side-effect”. Also, the responders at 1 mg/kg with histamine-induced death was determined as 50%.

As to “Chlorophenylamine maleate [reference compound]”, the “Percent inhibition of histamine-induced death at a dose of 1 mg/kg, P.D. (%)” value in the data set with histamine-induced death was determined as 100%. The “The ratio of the elongation” value in data set [2] (setting [4]) was determined as 1.81.

Source of the values: US4929618A, “Piperdine and piperazine derivatives, and antihistaminic pharmaceutical compositions containing the same” (priority 1988, dated 1990).
